# Reference: patent US20260365628A1, “SUBSTITUTED 3,4-DIHYDROQUINOLINONE INHIBITORS OF TSHR” (Septerna, Inc., priority 2022, published 2026)
# Biological target: T1, hTSHR (Homo sapiens, UniProt P16473)
# T1 construct: expressed in transfected cells
# Experiment: hTSHR TR-FRET cAMP Assay (inhibition of M22-stimulated cAMP production)
# Format: cell-based
# Conditions: Expi293F Inducible cells stably expressing hTSHR; cAMP HTRF; stimulated with EC80 of anti-TSHR antibody M22; 15 min compound preincubation, 30 min at 37° C.; read-out: Activity (IC50 bins)
# Outline: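 Readout was a cAMP HTRF ratio of 655/620 nm after lysis, scaled between the EC80 M22 signal (0% inhibition) and no-agonist vehicle (100%). Frozen induced Expi293F-hTSHR cells saw test compounds (0.5% DMSO) for 15 min at 37 °C before 30 min of M22 stimulation at EC80.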
# T1 sequence (P16473 21-764): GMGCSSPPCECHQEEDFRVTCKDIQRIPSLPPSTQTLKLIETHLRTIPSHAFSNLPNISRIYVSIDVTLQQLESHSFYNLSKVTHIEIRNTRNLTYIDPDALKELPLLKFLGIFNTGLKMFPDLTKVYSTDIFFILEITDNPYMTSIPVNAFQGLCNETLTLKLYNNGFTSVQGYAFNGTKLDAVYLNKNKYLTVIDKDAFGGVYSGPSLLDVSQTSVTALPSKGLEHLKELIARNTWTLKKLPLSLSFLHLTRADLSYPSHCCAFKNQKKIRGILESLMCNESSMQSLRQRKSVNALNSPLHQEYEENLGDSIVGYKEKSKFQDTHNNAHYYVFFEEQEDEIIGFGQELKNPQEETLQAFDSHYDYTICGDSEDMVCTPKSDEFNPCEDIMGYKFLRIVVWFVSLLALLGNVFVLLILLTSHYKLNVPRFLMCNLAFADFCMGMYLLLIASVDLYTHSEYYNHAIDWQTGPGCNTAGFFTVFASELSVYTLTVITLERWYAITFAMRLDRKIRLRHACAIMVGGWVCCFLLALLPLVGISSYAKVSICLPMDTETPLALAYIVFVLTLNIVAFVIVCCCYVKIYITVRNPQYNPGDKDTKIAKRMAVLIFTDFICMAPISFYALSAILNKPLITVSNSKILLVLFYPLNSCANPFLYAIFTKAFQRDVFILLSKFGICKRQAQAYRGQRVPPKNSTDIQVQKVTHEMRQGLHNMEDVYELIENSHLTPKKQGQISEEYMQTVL
row,Compound,IC50 [nM]
1,"C[C@H]1Oc2cc(NC(=O)NC(C)(C)C)ccc2N(Cc2cccc([C@@H](O)C(F)(F)F)c2)C1=O [Example 174, 1-(tert-butyl)-3-((R)-2-methyl-3-oxo-4-(3-((R)-2,2,2-trifluoro-1-hydroxyethyl)benzyl)-3,4-dihydro-2H-benzo [b][1,4]oxazin-7-yl)urea]",100 to 1000
2,"C[C@H]1Oc2cc(NC(=O)NC(C)(C)C)ccc2N(Cc2cccc([C@H](O)C(F)(F)F)c2)C1=O [Example 175, 1-(tert-butyl)-3-((R)-2-methyl-3-oxo-4-(3-((S)-2,2,2-trifluoro-1-hydroxyethyl)benzyl)-3,4-dihydro-2H-benzo [b][1,4]oxazin-7-yl)urea]",100 to 1000
3,"C[C@H]1Oc2cc(NC(=O)NC(C)(C)C)ccc2N(Cc2ccccc2Cl)C1=O [Example 178, (R)-1-(tert-butyl)-3-(4-(2-chloro-benzyl)-2-methyl-3-oxo-3,4-dihydro-2H-benzo [b][1,4]oxazin-7-yl)urea]",100 to 1000
4,"Cc1nc2cc(NC(=O)NC(C)(C)C)ccc2n([C@@H](C)c2ccccc2)c1=O [Example 179, 3-tert-butyl-1-{3-methyl-2-oxo-1-[(1S)-1-phenylethyl]quinoxalin-6-yl}urea]",100 to 1000
5,"Cc1nc2cc(NC(=O)NC(C)(C)C)ccc2n([C@@H](C)c2cccc(Cl)c2)c1=O [Example 180, (S)-1-(tert-butyl)-3-(1-(1-(3-chlorophenyl)ethyl)-3-methyl-2-oxo-1,2-dihydroquinoxalin-6-yl)urea]",100 to 1000
6,"Cc1nc2cc(NC(=O)NC(C)(C)C)ccc2n([C@@H](C)c2cccc(C(F)(F)F)c2)c1=O [Example 181, (S)-1-(tert-butyl)-3-(3-methyl-2-oxo-1-(1-(3-(trifluoromethyl)phenyl)ethyl)-1,2-dihydroquinoxalin-6-yl)urea]",100 to 1000
7,"Cc1nc2cc(NC(=O)NC(C)(C)C)ccc2n([C@@H](C)c2cccc(OC(F)(F)F)c2)c1=O [Example 182, (S)-1-(tert-butyl)-3-(3-methyl-2-oxo-1-(1-(3-(trifluoromethoxy)phenyl)ethyl)-1,2-dihydroquinoxalin-6-yl)urea]",100 to 1000
8,"C[C@H]1Oc2cc(NC(=O)NC(C)(C)C)ccc2N([C@@H](C)c2cccc(OC(F)(F)F)c2)C1=O [Example 184, 1-(tert-butyl)-3-((R)-2-methyl-3-oxo-4-((S)-1-(3-(trifluoromethoxy)phenyl)ethyl)-3,4-dihydro-2H-benzo[b][1,4]oxazin-7-yl)urea]",100 to 1000
9,"COc1cccc([C@H](C)N2C(=O)[C@@H](C)Oc3cc(NC(=O)NC(C)(C)C)ccc32)c1 [Example 187, 1-(tert-butyl)-3-((R)-4-((S)-1-(3-methoxyphenyl)ethyl)-2-methyl-3-oxo-3,4-dihydro-2H-benzo[b][1,4]oxazin-7-yl)urea]",100 to 1000
10,"C[C@H]1Oc2cc(NC(=O)NC(C)(C)C)ccc2N([C@@H](C)c2cc(Cl)ccc2Cl)C1=O [Example 190, 1-(tert-butyl)-3-((R)-4-((S)-1-(2,5-dichlorophenyl)ethyl)-2-methyl-3-oxo-3,4-dihydro-2H-benzo[b][1,4]oxazin-7-yl)urea]",100 to 1000
11,"CC1(NC(=O)Nc2ccc3c(c2)ncc(=O)n3Cc2ccccc2)CCC1 [Example 191, 1-(1-benzyl-2-oxo-1,2-dihydroquinoxalin-6-yl)-3-(1-methylcyclobutyl)urea]",100 to 1000
12,"CC1(C)CN(C(=O)Nc2ccc3c(c2)ncc(=O)n3Cc2ccccc2)C1 [Example 192, N-(1-benzyl-2-oxo-1,2-dihydroquinoxalin-6-yl)-3,3-dimethylazetidine-1-carboxamide]",> 1000
13,"CC1(NC(=O)Nc2ccc3c(c2)ncc(=O)n3Cc2ccccc2)CCCC1 [Example 193, 1-(1-benzyl-2-oxo-1,2-dihydroquinoxalin-6-yl)-3-(1-methylcyclopentyl) urea]",100 to 1000
14,"CC1(C)CCN(C(=O)Nc2ccc3c(c2)ncc(=O)n3Cc2ccccc2)C1 [Example 194, N-(1-benzyl-2-oxo-1,2-dihydroquinoxalin-6-yl)-3,3-dimethylpyrrolidine-1-carboxamide]",> 1000
15,"CC(C)(CF)NC(=O)Nc1ccc2c(c1)ncc(=O)n2Cc1ccccc1 [Example 195, 1-(1-benzyl-2-oxo-1,2-dihydroquinoxalin-6-yl)-3-(1-fluoro-2-methylpropan-2-yl)urea]",> 1000

# More lines, now with the values ahead:
row,IC50 [nM],Compound
1,100 to 1000,"COc1cccc(CN2C(=O)[C@@H](C)Oc3cc(NC(=O)NC(C)(C)C)ccc32)c1 [Example 164, (R)-1-(tert-butyl)-3-(4-(3-methoxy-benzyl)-2-methyl-3-oxo-3,4-dihydro-2H-benzo [b][1,4]oxazin-7-yl)urea]"
2,100 to 1000,"C[C@H]1Oc2cc(NC(=O)NC(C)(C)C)ccc2N(Cc2csc(C(F)(F)F)n2)C1=O [Example 165, (R)-1-(tert-butyl)-3-(2-methyl-3-oxo-4-((2-(trifluoro-methyl)thiazol-4-yl)methyl)-3,4-dihydro-2H-benzo [b][1,4]oxazin-7-yl)urea]"
3,< 100,"C[C@H]1Oc2cc(NC(=O)NC(C)(C)C)ccc2N(Cc2cccc(OC(F)(F)F)n2)C1=O [Example 166, (R)-1-(tert-butyl)-3-(2-methyl-3-oxo-4-((6-(trifluoro-methoxy)pyridin-2-yl)methyl)-3,4-dihydro-2H-benzo [b][1,4]oxazin-7-yl)urea]"
4,100 to 1000,"C[C@H]1Oc2cc(NC(=O)NC(C)(C)C)ccc2N(Cc2ccnc(C(F)(F)F)n2)C1=O [Example 167, (R)-1-(tert-butyl)-3-(2-methyl-3-oxo-4-((2-(trifluoro-methyl)pyrimidin-4-yl)methyl)-3,4-dihydro-2H-benzo [b][1,4]oxazin-7-yl)urea]"
5,100 to 1000,"C[C@H]1Oc2cc(NC(=O)NC(C)(C)C)ccc2N(Cc2nc(C(F)(F)F)cs2)C1=O [Example 168, (R)-1-(tert-butyl)-3-(2-methyl-3-oxo-4-((4-(trifluoro-methyl)thiazol-2-yl)methyl)-3,4-dihydro-2H-benzo [b][1,4]oxazin-7-yl)urea]"
6,100 to 1000,"C[C@H]1Oc2cc(NC(=O)NC(C)(C)C)ccc2N(Cc2cncc(C(F)(F)F)n2)C1=O [Example 169, (R)-1-(tert-butyl)-3-(2-methyl-3-oxo-4-((6-(trifluoro-methyl)pyrazin-2-yl)methyl)-3,4-dihydro-2H-benzo [b][1,4]oxazin-7-yl)urea]"
7,100 to 1000,"C[C@H]1Oc2cc(NC(=O)NC(C)(C)C)ccc2N(Cc2nccc(C(F)(F)F)n2)C1=O [Example 170, (R)-1-(tert-butyl)-3-(2-methyl-3-oxo-4-((4-(trifluoro-methyl)pyrimidin-2-yl)methyl)-3,4-dihydro-2H-benzo [b][1,4]oxazin-7-yl)urea]"
8,100 to 1000,"C[C@H]1Oc2cc(NC(=O)NC(C)(C)C)ccc2N(Cc2cncc(C(F)(F)F)c2)C1=O [Example 171, (R)-1-(tert-butyl)-3-(2-methyl-3-oxo-4-((5-(trifluoro-methyl)pyridin-3-yl)methyl)-3,4-dihydro-2H-benzo [b][1,4]oxazin-7-yl)urea]"
9,< 100,"C[C@H]1Oc2cc(NC(=O)NC(C)(C)C)ccc2N(Cc2cccc(C(O)C(F)(F)F)c2)C1=O (stereo partly drawn) [Example 172, 1-(tert-butyl)-3-((2R)-2-methyl-3-oxo-4-(3-(2,2,2-trifluoro-1-hydroxy-ethyl)benzyl)-3,4-dihydro-2H-benzo [b][1,4]oxazin-7-yl)urea]"
10,100 to 1000,"C[C@H]1Oc2cc(NC(=O)NC(C)(C)C)ccc2N(Cc2cccc(C(O)C(F)(F)F)n2)C1=O (stereo partly drawn) [Example 173, 1-(tert-butyl)-3-((2R)-2-methyl-3-oxo-4-((6-(2,2,2-trifluoro-1-hydroxy-ethyl)pyridin-2-yl)methyl)-3,4-dihydro-2H-benzo [b][1,4]oxazin-7-yl)urea]"
11,< 100,"C[C@H]1Oc2cc(NC(=O)NC(C)(C)C)ccc2N(Cc2cc(Cl)ccc2Cl)C1=O [Example 176, (R)-1-(tert-butyl)-3-(4-(2,5-dichloro-benzyl)-2-methyl-3-oxo-3,4-dihydro-2H-benzo [b][1,4]oxazin-7-yl)urea]"
12,< 100,"C[C@H]1Oc2cc(NC(=O)NC(C)(C)C)ccc2N(Cc2cc(F)ccc2F)C1=O [Example 177, (R)-1-(tert-butyl)-3-(4-(2,5-difluoro-benzyl)-2-methyl-3-oxo-3,4-dihydro-2H-benzo [b][1,4]oxazin-7-yl)urea]"
13,< 100,"C[C@H]1Oc2cc(NC(=O)NC(C)(C)C)ccc2N([C@@H](C)c2cccc(Cl)c2)C1=O [Example 183, 1-(tert-butyl)-3-((R)-4-((S)-1-(3-chlorophenyl)ethyl)-2-methyl-3-oxo-3,4-dihydro-2H-benzo[b][1,4]oxazin-7-yl)urea]"
14,< 100,"C[C@H]1Oc2cc(NC(=O)NC(C)(C)C)ccc2N([C@@H](C)c2cccc(C(F)F)c2)C1=O [Example 185, 1-(tert-butyl)-3-((R)-4-((S)-1-(3-(difluoromethyl)phenyl)ethyl)-2-methyl-3-oxo-3,4-dihydro-2H-benzo[b][1,4]oxazin-7-yl)urea]"
15,< 100,"C[C@H]1Oc2cc(NC(=O)NC(C)(C)C)ccc2N([C@@H](C)c2cccc(C(F)(F)F)n2)C1=O [Example 186, 1-(tert-butyl)-3-((R)-2-methyl-3-oxo-4-((S)-1-(6-(trifluoromethyl)pyridin-2-yl)ethyl)-3,4-dihydro-2H-benzo[b][1,4]oxazin-7-yl)urea]"
16,< 100,"C[C@H]1Oc2cc(NC(=O)NC(C)(C)C)ccc2N([C@@H](C)c2cc(F)ccc2F)C1=O [Example 188, 1-(tert-butyl)-3-((R)-4-((S)-1-(2,5-difluorophenyl)ethyl)-2-methyl-3-oxo-3,4-dihydro-2H-benzo[b][1,4]oxazin-7-yl)urea]"
17,< 100,"C[C@H]1Oc2cc(NC(=O)NC(C)(C)C)ccc2N([C@@H](C)c2ccccc2Cl)C1=O [Example 189, 1-(tert-butyl)-3-((R)-4-((S)-1-(2-chlorophenyl)ethyl)-2-methyl-3-oxo-3,4-dihydro-2H-benzo[b][1,4]oxazin-7-yl)urea]"
